According to US20070010527A1, “4-Anilino-3-quinolinecarbonitriles for the treatment of cancer” (priority 2005, published 2007):

What was measured:
[1] = tested on: Molt-4 T-cell leukemia cells; experiment: Proliferation assay, MTS; format: cell-based; conditions: Homo sapiens, MOLT-4, 96 h, day 4
Method: (§1) For the experiments described in Table 3, 1000 cells were plated in each well of a 96 well cell culture dish on day 0 in the standard growth medium for that particular cell line. Compound was added on day 1. Relative cell number was determined on day 4.
(§2) Some assays were monitored with the aid of the CellTiter 96 assay (Promega #G3580). With this assay, on day 4, detection reagent was added to the 96 well plate and absorbance at 490 nm was measured.

[2] = tested on: HSB-2 T-cell leukemia cells; experiment: Proliferation assay, MTS; format: cell-based; conditions: HSB2, 96 h, day 4
Method: as §1, §2

PKA = biological target: T1, PKA (Bos taurus, UniProt P00517); experiment: PKA Scintiplate kinase assay; format: biochemical
T1 construct: purchased Upstate 14-114
Excerpt: PKA, PKC, S6 kinase, CAMKII and p38 kinase assays.

[3] = tested on: BxPC3 pancreatic tumor cells; experiment: Proliferation assay, CellTiter-Glo; format: cell-based; conditions: Homo sapiens, BXPC-3, 96 h, Cell-glo, day 4
Method: as §1
(§3) The CellTiter-Glo luminescent cell viability assay (Promega #G7573) was used where cells were lysed with the CellTiter Glo reagent, agitated briefly and allowed to sit at room temperature for 30 minutes prior to analyzing on a Wallac plate reader equipped for luminescence readings.

[4] = tested on: DU145 prostate tumor cells; experiment: Proliferation assay, CellTiter-Glo; format: cell-based; conditions: Homo sapiens, DU-145, 96 h, Cell-glo, day 4
Method: as §1, §3

[5] = tested on: Capan pancreatic tumor cells; experiment: Proliferation assay, CellTiter-Glo; format: cell-based; conditions: 96 h, Cell-glo, day 4
Method: as §1, §3

[6] = tested on: HN5 head and neck tumor cells; experiment: Proliferation assay, CellTiter-Glo; format: cell-based; conditions: 96 h, Cell-glo, day 4
Method: as §1, §3

A375 melanoma cells [7] = experiment: Proliferation assay, CellTiter-Glo; format: cell-based; conditions: Homo sapiens, A-375, 96 h, Cell-glo, day 4
Method: as §1, §3

[8] = tested on: MiaPaca pancreatic tumor cells; experiment: Proliferation assay, CellTiter-Glo; format: cell-based; conditions: Homo sapiens, MIA PaCa-2, 96 h, Cell-glo, day 4
Method: as §1, §3

[9] = tested on: LnCap prostate tumor cells; experiment: Proliferation assay, CellTiter-Glo; format: cell-based; conditions: Homo sapiens, 96 h, Cell-glo, day 4
Method: as §1, §3

RPMI-7951 melanoma cells = experiment: Proliferation assay, SRB; format: cell-based; conditions: Homo sapiens, RPMI-7951, 96 h, day 4
Method: as §1
(§4) The sulforhodamine B (SRB) assay was used for certain melanoma lines. In this assay, the serum concentration in the growth medium was 5% and culture medium volume was 0.2 ml. On day 4, 0.05 ml of 50% trichloroacetic acid was added to the medium and the plate was allowed to sit at room temperature for 1 hour. The medium was decanted and the plate was washed 3 times with water. The washed plates were dried, and then 0.08 ml of SRB reagent (SRB was obtained from Sigma; 0.4% SRB in 1% acetic acid) was added. After 10 minutes at room temperature, the plates were washed with 1% acetic acid until no free red color remained in solution. The bound SRB reagent was solubilized with 0.15 ml 10 mM Tris (no acid added). After agitating for 5 minutes on a shaker, the absorbance was read at 540 nm.

HS-294-T melanoma cells = experiment: Proliferation assay, SRB; format: cell-based; conditions: Homo sapiens, 96 h, day 4
Method: as §1, §4

A375 melanoma cells [10] = experiment: Proliferation assay, SRB; format: cell-based; conditions: Homo sapiens, A-375, 96 h, day 4
Method: as §1, §4

CAMKII = CAMKII kinase ELISA; format: biochemical
Method: Assay Dilution Buffer (ADB): 20 mM MOPS, pH 7.2, 25 mM β-glycerol phosphate, 5 mM EGTA, 1 mM sodium orthovanadate, 1 mM dithiothreitol. 2. […] 3. […] 4. […] 5. […] 3. […] 4. […] 5. […] 6. […] 7.

[11] = tested on: A375 melanoma subcutaneous tumor xenografts; experiment: A375 melanoma subcutaneous tumor xenograft in nude mice; format: in vivo; conditions: 30 mg/kg bid ip 9 days, day 12
Method: All animal studies were conducted under an approved Institutional Animal Care and Use Committee protocol. Tumor cells were suspended to 50 million cells/ml and 0.2 ml of the cell suspension was injected subcutaneously into a flank of 6-7 weeks old female nude mice (Charles River, Wilmington, Mass.). Mice with tumors larger than 200 mm^3 after one week were administered vehicle or compound by intraperitoneal injection at the indicated doses in 0.2 ml of vehicle containing 0.5% methylcellulose and 0.4% polysorbate 80 (Tween 80).

[12] = tested on: HN5 head and neck tumor line; experiment: Phosphorylation of downstream proteins in EGF-stimulated HN5 cells; format: cell-based; conditions: serum-starved HN5 cells, compound 4 hours, then EGF 50 ng/ml ten minutes
Method: FIG. 1. […] Serum-starved HN5 cells were treated with the compound for 4 hours, after which EGF was added to 50 ng/ml for ten minutes. Lysates were analyzed for Stat3 Y705, c-Cbl Y731 and Y774 and caveolin Y14 phosphorylation.

## COc1cc(Nc2c(C#N)cnc3cc(OCCCN4CCN(C)CC4)c(OC)cc23)c(Cl)cc1Cl [4-(2,4-dichloro-5-methoxy-phenylamino)-6-methoxy-7-[3-(4-methyl-piperazin-1-yl)-propoxy]-quinoline-3-carbonitrile]
[1]
  IC50: 8.2 µM
[2]
  IC50: 0.014 µM
PKA
  IC50: 5.03 µM
[3]
  IC50: 3.9 µM
[4]
  IC50: 1.6 µM
[5]
  IC50: 5.9 µM
[6]
  IC50: 0.3 µM
A375 melanoma cells [7]
  IC50: 1.2 µM
[8]
  IC50: 1.3 µM
[9]
  IC50: 3.5 µM
RPMI-7951 melanoma cells
  IC50: 1.2 µM
HS-294-T melanoma cells
  IC50: 0.6 µM
A375 melanoma cells [10]
  IC50: 0.9 µM
CAMKII
  IC50: 6.25 µM
[11]
  T/C: 39%, day 12
[12]
  phosphorylation of Y705 of Stat3: reduced
  phosphorylation of c-Cbl Y731: reduced
  phosphorylation of caveolin Y14: reduced
